From a melting point compilation (Tetko et al.; mined from patent text by program, amines drawn as free bases though some values may be those of a salt)

Row | SMILES | melting point [°C]
1 | Cc1nc(N)nc(N)c1-c1ccc(F)cc1Cl | 238
2 | Cc1cccc(N2CCN(c3ccc(S(C)(=O)=O)nn3)CC2)c1 | 201
3 | CS(=O)(=O)c1ccc(C2=C(c3ccc(F)cc3)CC3(CCC3)C2)cc1 | 123 to 124
4 | CC(=O)Oc1ccc(-c2cncnc2Cl)cc1OC(C)=O | 108
5 | C[C@]1(COc2ccc3cc(N4CCC(Oc5ccc(OC(F)(F)F)cc5)CC4)ccc3c2)Cn2cc([N+](=O)[O-])nc2O1 | 205 to 208
6 | Cc1cc(C#N)cc(C(=O)NCC2CC2)c1NC(=O)c1cc(C(F)(F)F)nn1-c1ncccc1Cl | 235 to 236
7 | Nc1c(Br)cc(-n2cnnc2)cc1C(F)(F)F | 202 to 203
8 | CN(C)c1c(Cl)cc(C(O)CNC(C)(C)C)cc1Cl (stereo not given) | 96 to 99
9 | OC1(c2ccc(Cl)cc2)CN(C(c2ccccc2)c2ccccc2)C1 | 108
10 | C#CC(OC)Oc1cc(Cc2cnc(N)nc2N)cc(OC)c1OC (stereo not given) | 153 to 155
11 | CC(=O)NCC1CN(c2ccc(S(C)=O)c(F)c2)C(=O)O1 (stereo not given) | 143 to 145
12 | Clc1ccc(C2=NNCC2n2cc(Cl)cn2)cc1 (stereo not given) | 176
13 | Fc1ccc(C2CSCC(=S)N2)cc1 (stereo not given) | 107 to 108
14 | O=C(CO)c1ccc(Cl)c(Cl)c1 | 115 to 118
15 | O=C(OC(=O)N(c1ccccc1)c1ccccc1)N(c1ccccc1)c1ccccc1 | 159 to 162
16 | CN1CCN(c2nn(S(=O)(=O)c3ccccc3)c3ccc(Br)cc23)CC1 | 135 to 137
17 | CC1(C)CC(=O)C=C(OC(=O)c2cccc3nnsc23)C1 | 131 to 133
18 | O=[N+]([O-])c1ccc(NS(=O)(=O)c2ccccc2)cc1 | 137
19 | O=C1N(c2ccc(Cl)c(Cl)c2)CCON1c1ccccc1 | 112 to 113
20 | CN(C)CCCC1(O)c2ccccc2OC12CCCCCC2 (stereo not given) | 96 to 98.5
21 | CCc1nc2c(O)c(CN(C)C)c(C(=O)N(C)C)cc2n1C | 183 to 185
22 | CCC12CCC3C4CCC(OC)=CC4=CCC3C1C=CC2=O (stereo not given) | 159 to 161
23 | Nc1nc(Br)cn2c(Br)cnc12 | 246
24 | COC(=O)c1c(O)ccn1C | 44 to 46

Row | SMILES | melting point [°C]
25 | CC(=O)C1=NN(c2ccc(C(=O)O)cc2C)C(=O)C1 | > 250
26 | O=S1(=O)C(CN2CCCCC2)=Cc2ccc(Cl)cc21 | 154 to 156
27 | CC(=O)NC[C@H]1CN(c2ccc(C3CCNCC3)cc2)C(=O)O1 | 146 to 148
28 | CCCCN1CCSC1c1nsc2ccc(-n3c(=O)cc(C(F)(F)F)n(C)c3=O)cc12 (stereo not given) | 78 to 82
29 | CN(CCN(CCC12CC3CC(CC(C3)C1)C2)C(=O)NCCCc1ccncc1)C(=O)CC(C)(C)C | 101 to 102
30 | COC(=O)c1cc(OC)c(O)c(C23CC4CC(CC(C4)C2)C3)c1 | 179
31 | FC(F)(F)c1ccc(I)c(I)c1 | 62 to 64
32 | O=C1CCCN1C(=O)NCCn1cccn1 | 62.5 to 63.5
33 | COc1ccc(C2CN(C)Cc3c(N)cccc32)cc1OC (stereo not given) | 143 to 144
34 | CCCCCCCCN(CCCCCCCC)c1nc(Nc2ccc3nc(S)sc3c2)nc(N(CCCCCCCC)CCCCCCCC)n1 | 81 to 83
35 | Nc1ccc(S(=O)(=O)CCO)cc1C(=O)O | 164 to 167
36 | [O-][N+]1=C(c2ccccc2Cl)c2ccccc2C=CC1 | 115 to 116
37 | COC(=O)CSc1nc(N2CCN(c3ncccn3)CC2)ncc1[N+](=O)[O-] | 250 to 252
38 | COc1cc(C(C)C)c(Oc2cnc(NC(CO)CO)nc2N)cc1I | 158 to 159
39 | Nc1nc(Cl)nc2c1ncn2[C@@H]1S[C@H](CO)[C@@H](O)[C@H]1O | 220 to 222
40 | O=C(c1ccc(NS(=O)(=O)c2ccccc2)cc1)N1CCCCc2ccccc21 | 178 to 182
41 | O=C1CCN(c2ccc(CC3SC(=O)NC3=O)cc2F)CC1 (stereo not given) | 129 to 130
42 | CC1(C)CCC(C)(C)c2cc(NCC(=O)O)ccc21 | > 360
43 | N#Cc1ccccc1OC[C@H]1CO1 | 84 to 86
44 | Nc1cnc2c(F)c(F)ccc2c1 | 161
45 | CCCCCCCCCCC1Cc2ccc(C(=O)O)cc2N1 (racemic) | 123 to 125
46 | CC(=O)C(=Cc1cc([N+](=O)[O-])cc([N+](=O)[O-])c1)C(C)=O | 101 to 105
47 | CNc1nc(C#N)c(-c2ccncc2)s1 | 192 to 195

The remaining lines, values ahead:

Row | melting point [°C] | SMILES
48 | 176 to 178 | CCn1cc(C)c(NS(=O)(=O)c2ccc(N)cc2)nc1=O
49 | 159 to 160 | Cc1ccc(N2N=C3c4cc(CCO)sc4CCC3CC2=O)cc1 (stereo not given)
50 | 68 to 69 | C#CCCc1cc2ccc(C(=O)OC)cc2o1
51 | 255 | CC(C)(C)OC(=O)NCc1ccc(C(=O)Nc2ccc(Nc3cc(-c4cccc5c4oc4ccccc45)ncn3)cc2)c(F)c1
52 | 134 to 136 | CCOC(=O)Cc1c(CCc2ccc(O)cc2)oc2ccc(C#N)cc12
53 | > 280 | N#Cc1cccc(-c2nc(Nc3cnccn3)sc2-c2ccncn2)c1
54 | 92 to 95 | CC(C)C[C@H](NC(=O)CCOc1ccccc1)C(=O)N[C@@H](C(C)C)[C@@H](O)c1c(-c2ccccc2)c1=O
55 | 162 to 164 | CC1(C)CCC(=O)Nc2cc(OCCCN3CCN(c4cccc(Cl)c4Cl)CC3)ccc21
56 | 94 to 95 | CCOC(=O)c1cc2cc(Br)ccc2s1
57 | 148 to 150 | COc1ccc2c(c1)c(CCO)c(C)n2-c1ncnc2cc(Cl)ccc12
58 | 79 to 81 | Cc1cc(-c2noc(C(F)(F)F)n2)cc(C)c1OCCCc1ccc(CCl)nc1
59 | 86 | CCCCC[C@H]1CC[C@H](CCCCc2ccc(O)cc2)CC1
60 | 269 to 271 | Cc1c(-c2ccccc2)[nH]c(=O)n1C1CCN(Cc2cccc(I)c2)CC1
61 | 181 to 185 | COc1cc(C)nc(NC(=O)NS(=O)(=O)c2cccc3cccnc23)n1
62 | 63 | CCOC(=O)C(=CNc1ccc(OC)c(F)c1)C(=O)OCC
63 | 136 | CCCc1ccc(S(=O)(=O)Nc2ccc3nc(C)cnc3c2)cc1
64 | 159 to 161 | O=C(O)c1cccc2ccoc12
65 | 190 to 192 | CNC(=O)c1ccc(NC(=O)Oc2ccccc2)cc1
66 | 103 | COCOc1cc2c(c3ccccc13)Nc1ccccc1S2
67 | 89 to 90 | CCCCCCCCCCCCCCCCCCOc1cc(NC(C)=O)cc(N(CC(=O)OCc2ccccc2)CC(=O)OCc2ccccc2)c1
68 | 148 to 151 | CN(Cc1cc2c(=O)c(C(=O)NCc3ccc(Cl)cc3)cn(C)c2o1)CC(O)c1cnccn1 (single isomer, unassigned; (+))
69 | 45 to 48 | CC1(C)CC(N2CCN(Cc3ccccc3)C2=O)c2cc(C#N)ccc2O1 (stereo not given)
70 | 120 to 121 | CCOC(=O)c1oc(C)c(O)c1O
71 | 281 to 283 | CC1Cc2cc3c(cc2C(c2ccc([N+](=O)[O-])cc2)=NN1C(=S)NC(=O)NC1CC1)OCO3 (stereo not given)
72 | 146 to 147 | CCCN(Cc1ccc(-c2ccccc2-c2nnn[nH]2)cc1)c1ncccc1C(=O)OC
73 | 191 to 193 | CCOC(=O)c1ncc2[nH]c3ccc(C4CCCCC4)cc3c2c1C
74 | 113 to 114 | CC(C)Cn1c(=O)n(C)c(=O)c2c(-c3ccsc3)c(Cc3ccccc3C(F)(F)F)sc21

Row | melting point [°C] | SMILES
75 | 76 to 79 | COC(=O)c1cccc2nc(SCCCN3CCN(CC(=O)Nc4c(SC)cc(C)nc4SC)CC3)oc12
76 | 211 to 214 | COc1ccc(-c2nc(NC3=NCCN3)sc2-c2ccc(OC)cc2)cc1
77 | 169 to 171 | CC(=O)Oc1ccccc1C(=O)Nc1ccc2oc(C)nc2c1
78 | 156 to 158 | COc1cc(N)c(Cl)cc1C(=O)NCC1CCN(CCCCCC(=O)c2ccc(Cl)cc2)CC1
79 | 192 to 194 | O=C(Nc1c(F)cccc1F)c1ccc(-n2nc(C(F)(F)F)cc2C2CC2)nc1
80 | 108 to 109 | COCCOCCOCCn1c2ccc(C=O)cc2c2cc(C=O)ccc21
81 | 293 to 295 | Cc1ccc(-c2c(-c3ccc(S(N)(=O)=O)cc3)[nH]c3ccccc23)cc1
82 | 124 to 125 | CCOc1nn(Cc2ccc(OCc3cccnc3)c(OC)c2)cc1CCC(=O)O
83 | 221 to 223 | O=C(O)CCNC(=O)C1CN(c2ccc(-c3noc(=O)[nH]3)cc2)C(=O)O1 (stereo not given)
84 | 273 to 276 | COC(=O)c1ccc2c(c1)N(C)C(=O)c1cccnc1N2
85 | 133 | CCCCOc1c(-c2ccnc3ccc(C(C)=O)cc23)cc(C(C)C)cc1C(C)C
86 | 150 to 151 | COc1ccc(N/C=C2\C(=O)NC(=O)c3ccccc32)cc1
87 | 84 | OC(CCl)(Cc1ccc(Cl)cc1Cl)c1ccc(-c2ccccc2)cc1 (stereo not given)
88 | 189 to 192 | CSc1ccc(-c2oc3ccccc3c(=O)c2-c2ccc(C(F)(F)F)cc2)cc1
89 | 285 to 286 | O=C(O)c1ccc(-c2ccc(-c3ccc(Cl)cc3)s2)cc1
90 | 68 to 70 | CCOc1ccccc1OC(c1ccccc1)C(O)CO (stereo not given)
91 | 195 to 197 | Cc1c(NC(=O)c2ccc(-c3ccc4c(c3)CCCO4)cc2)ccc2cc(CN3CCCC3)cnc12
92 | 185 to 187 | Cc1cc(=O)c2ccc(OCCCN3CCC(NC(=O)c4ccccc4[N+](=O)[O-])CC3)cc2o1
93 | 68 to 73 | CCCCC1=NC2(CCCC2)C(=O)N1Cc1ccc(-c2ccccc2S(=O)(=O)Nc2noc(C)c2C)c(COCCF)c1
94 | 106 to 108 | CNc1ccc(Cl)cc1C(O)c1ccccc1Cl (stereo not given)
95 | 256 to 258 | CC(C)(C)OC(=O)NCc1ccc(Nc2ncnc3[nH]cc(C(=O)c4ccccc4)c23)cc1
96 | 54 to 55 | O=Cc1ccc(CC(=O)OCc2ccccc2)cc1
97 | 156 to 157 | COc1cc(-c2cc(=O)c3ccc(OCCCBr)cc3o2)cc(OC)c1OC
98 | 262 to 266 | Nc1ccc(-c2cc(=O)c(C(=O)O)cn2-c2ccc(F)cc2)cc1
99 | 96 to 103 | COC(=O)CCSCc1ccc2oc(-c3ccc4ccc(Cl)cc4n3)cc2c1
100 | 129 to 131 | COc1cc(OC)c(-c2cc3ccccc3n2C)cc1C=CC(=O)c1ccc(S(=O)(=O)NO[Si](C)(C)C(C)(C)C)cc1
